Data as given in publication PMC10916382, “Repurposing screen identifies novel candidates for broad-spectrum coronavirus antivirals and druggable host targets” (Antimicrobial Agents and Chemotherapy, 2024).
Like-named read-outs stand apart in the source and are kept apart here.

Legend:
HCoV-229E = experiment: microbe, parasite or virus in culture; type: cell-based, Homo sapiens sapiens; settings: Human coronavirus 229E, Huh7.5, read-out: IC50 (µM), HCoV 229E
in vitro [1] = settings: human
in vitro [2] = experiment: in vitro
[3] = Huh-7.5/F-Luc cells, maximum tested dose 5 µM
[4] = Calu-3 cells, immunofluorescence imaging
[5] = Anti-SARS-CoV-2 screening on Calu-3 cells: viability [% of control], Calu-3 cells

Structure (SMILES)	IC50 (HCoV-229E)	CC50 (µM) (Huh-7.5/F-Luc cells; [3])	Anti-SARS-CoV-2 screening on Calu-3 cells: intracellular SARS-CoV-2 infection measured via immunofluorescence imaging [% of control] (SARS-CoV-2; [4])	viability at 5 µM (in vitro [1])	viability (in vitro [2]; [5])	viability at 48 h, 5 µM (in vitro [2])	CC50 (µM) (Huh-7.5/F-Luc cells)	Anti-SARS-CoV-2 screening on Calu-3 cells: intracellular SARS-CoV-2 infection measured via immunofluorescence imaging [% of control] (SARS-CoV-2)	viability (in vitro [2])
OCCN1CCN(CCCC2c3ccc(F)cc3Sc3ccc(C(F)(F)F)cc32)CC1 (stereo not drawn) [RFM-010-066-3]	2.98 µM	greater than maximum tested dose	109.58 % of control	148%	86.5%	–	–	–	–
CCCN(CCC)C(=O)C(Cc1ccc(OCCCN2CCN(C)CC2)cc1)NC(=O)c1ccc(Cl)cc1 (stereo not drawn) [RFM-009-534-1]	3.36 µM	greater than maximum tested dose	104.27 % of control	135%	103%	–	–	–	–
OC1CCN(CCCN2c3ccccc3Sc3ccc(C(F)(F)F)cc32)C1 (stereo not drawn) [RFM-010-589-5]	1.4 µM	greater than maximum tested dose	102.40 % of control	146%	110%	–	–	–	–
CCCCC1=Cc2cc3c(cc2C1N1CCN(C)CC1)OCO3 (stereo not drawn) [RFM-005-200-6]	2.5 µM	greater than maximum tested dose	112.43 % of control	145%	102%	–	–	–	–
OCCN1CCN(CCCN2c3ccccc3Sc3ccc(Cl)cc32)CC1 [RFM-000-391-8]	1.84 µM	greater than maximum tested dose	116.90 % of control	181%	–	110%	–	–	–
COc1cccc(CCc2ccccc2OCC[C@@H]2C[C@@H](O)CN2C)c1 [RFM-011-187-5]	2.43 µM	greater than maximum tested dose	105.26 % of control	131%	102%	–	–	–	–
CC(C(O)c1ccccc1)N(C)CC=C1c2ccccc2CCc2ccccc21 (stereo not drawn) [RFM-010-015-2]	1.96 µM	greater than maximum tested dose	107.49 % of control	122%	107%	–	–	–	–
CN(C)CCCN1c2ccccc2Sc2ccc(C(F)(F)F)cc21 [RFM-004-217-1]	1.19 µM	–	–	159%	–	72.7%	greater than maximum tested dose	110.23 % of control	–
CC(=O)[C@]1(O)Cc2c(O)c3c(c(O)c2[C@@H](O[C@H]2C[C@H](N)[C@H](O)[C@H](C)O2)C1)C(=O)c1ccccc1C3=O [RFM-000-458-0]	1.55 µM	–	–	103%	–	15%	greater than maximum tested dose	139.58 % of control	–
Cc1c(NCCN2CCCC2)cc(C(=O)C(C)(C)C)cc1N1CCN(c2ncnc3[nH]nc(Br)c23)CC1 [RFM-011-974-4]	1.4 µM	greater than maximum tested dose	103.98 % of control	124%	104%	–	–	–	–
CCOC(=O)/C=C/[C@H](C[C@@H]1CCNC1=O)NC(=O)[C@@H](CC(=O)[C@@H](NC(=O)c1cc(C)on1)C(C)C)Cc1ccc(F)cc1 [RFM-010-414-3]	4.19 µM	greater than maximum tested dose	93.65 % of control	94.6%	100%	–	–	–	–
CCCCCCOC(=O)NC(=N)c1ccc(NCc2nc3cc(C(=O)N(CCC(=O)OCC)c4ccccn4)ccc3n2C)cc1 [RFM-002-982-3]	3.13 µM	greater than maximum tested dose	100.41 % of control	126%	106%	–	–	–	–
CN(C)CCC=C1c2ccccc2C(C)(C)c2ccccc21 [RFM-000-885-5]	1.34 µM	greater than maximum tested dose	109.53 % of control	152%	93%	–	–	–	–
Cc1nc(Nc2ncc(N3CCN(C)[C@H](C)C3)c(Nc3cc(C)n(C)n3)n2)cc(C2CC2)c1F [RFM-012-989-5]	1.97 µM	greater than maximum tested dose	114.63 % of control	125%	114%	–	–	–	–
COc1cc2c(cc1NS(=O)(=O)c1ccc(-c3ccc(Cl)s3)cc1)CCN(C)CC2 [RFM-010-759-5]	1.73 µM	greater than maximum tested dose	107.82 % of control	133%	92.9%	–	–	–	–
COCCN1CCC(N(Cc2ccc(-c3ccc(C(F)(F)F)cc3)cc2)C(=O)c2ccco2)CC1 [RFM-012-120-0]	1.61 µM	greater than maximum tested dose	87.75 % of control	130%	94.4%	–	–	–	–
CNc1cc(OC)c(C(=O)N[C@@H]2CCN(Cc3ccccc3)[C@@H]2C)cc1Cl [RFM-000-360-1]	2.36 µM	greater than maximum tested dose	103.45 % of control	134%	–	–	–	–	109%
OCCN1CCN(CCC=C2c3ccccc3Sc3ccc(C(F)(F)F)cc32)CC1 [RFM-000-079-3]	1.73 µM	greater than maximum tested dose	104.52 % of control	145%	–	105%	–	–	–
CCCN(CCC)C(=O)C(Cc1ccc(OCCCN2CCN(C)CC2)cc1)NC(=O)c1ccc(Br)cc1 (stereo not drawn) [RFM-012-167-5]	2.36 µM	greater than maximum tested dose	114.35 % of control	141%	99.3%	–	–	–	–
Oc1ccc(Nc2ccnc3cc(Cl)ccc23)cc1CN1CCCC1 [RFM-010-841-8]	1.41 µM	greater than maximum tested dose	102.22 % of control	165%	109%	–	–	–	–
Cc1cc(OCCN(C)C)c(C(C)C)cc1OC(=O)CC(C)(C)SN=O [RFM-011-454-5]	2.37 µM	greater than maximum tested dose	101.17 % of control	118%	88.9%	–	–	–	–
CN[C@@H](CC(C)C)C(=O)NCCCC(c1ccc(F)cc1)c1ccc(F)cc1 [RFM-010-013-0]	2.77 µM	greater than maximum tested dose	111.66 % of control	136%	99.2%	–	–	–	–
CC(CN(C)C)CN1c2ccccc2CCc2ccccc21 (stereo not drawn) [RFM-008-630-6]	1.47 µM	greater than maximum tested dose	106.86 % of control	145%	–	114%	–	–	–
C[C@@H]1CCCN1CCc1cc2cc(-c3ccc(C#N)cc3)ccc2o1 [RFM-000-099-7]	1.39 µM	greater than maximum tested dose	114.07 % of control	152%	98.3%	–	–	–	–
